According to US4598065A, “Use of peptides as medicaments and certain novel peptides” (Novo Industri A/S, priority 1980, dated 1986):

How the values were obtained:
NMRI mice = test: Acute toxicity study in NMRI mice; type: in vivo; conditions: 10 mg i.v. bolus, NMRI mice 20 g (500 mg/kg body weight)
adenylate cyclase = conditions: in vitro
Excerpt: The metabolic effects of glucagon1-21, glucagon1-26 and des(22-26)-glucagon, as exemplified by their lipolytic effect on rat free fat cells in vitro and their effect on the activation of the adenylate cyclase in vitro, are negligible compared with the metabolic effects of glucagon.

rat free fat cells = test: Lipolytic effect on rat free fat cells in vitro; type: cell-based
[1] = system: electrically stimulated guinea pig ileum; test: Contractions of the electrically stimulated guinea pig ileum in vitro; type: cell-based
Excerpt: 10^-5 M glucagon caused 83±4% (X±sd, N=3) ihibition compared to 78±5% for glucagon1-21. The effects of 10^-6 M was 50±3% and 52±5%, respectively, and of 10^-7 M: 27±3% for either peptide.

rats = test: Metabolic effects (hyperglycemia, insulin release) after administration to rats in vivo; design: species or system rat
[2] = system: intestinal motility in rabbits; test: Intestinal motility in anaesthetized rabbits in vivo (spasmolytic effect, balloon in jejunum); design: species or system rabbit; conditions: for spasmolytic effect: Experiment B, rabbit 2.32 kg
Protocol: One male rabbit weighing 2.56 kg was anaesthetized with nembutal after an overnight fast. The position of the balloon used for measurement of intestinal motility was 1 meter from pylorus in the jejunum. The motility was registered before and after intraveneous administration of 77 μg glucagon1-21 in 1 ml 0.9% saline containing 0.1% human serum albumin. […] The onset of effect was 1 minute after the administration and the duration of effect was 11 minutes.
A male rabbit weighing 2.32 kg was treated as described in Experiment A with the following dosages: […]

[3] = system: rabbit gall bladder preparation; test: Relaxation of submaximally contracted rabbit gall bladder preparation in vitro; type: cell-based
bile flow in rabbits = test: Bile flow in rabbits with catheters in the bile duct; type: in vivo, rabbit; conditions: for Amount of bile: 200 μg s.c. given after 45 minutes
Protocol: One rex rabbit weighing 2.0 kg was equipped with a catheter in the bile duct during nembutal anaesthesia on the day before the experiment. On the day of the experiment the bile was collected for periods of 15 minutes.
After 45 minutes 200 μg glucagon was administered subcutaneously in 1 ml of 0.9% saline containing 0.1% human serum albumin. After 120 minutes 154 μg glucagon1-21 was administered subcutaneously in 1 ml of the above solution. After 195 minutes the placebo (vide Experiment C) was administered.

[4] = system: isolated perfused rat pancreas; test: Insulin release from the isolated perfused rat pancreas; type: cell-based; conditions: infused to the same concentration as glucagon
[5] = system: pentagastrin stimulated gastric acid secretion in gastric fistula cats; test: Pentagastrin stimulated gastric acid secretion in cats with chronic gastric fistulas; type: in vivo, cat
Protocol: 1 μg/kg pentagastrin subcutaneously administered to gastric fistula cats caused an increase in gastic acid secretion of 856±71 μEq (Eq designates equivalent) acid (X±S.E.M., N=18). When 2 μg/kg glucagon1-21 was administered subcutaneously at the same time as 1 μg/kg pentagastrin the increase in acid output was only 417±104 μEq acid (N=6).
In a male cat weighing approx. 4.5 kg equipped with a cronic gastric fistula the gastric acid secretion was stimulated with 4.5 μg pentagastrin (Peptavlon®) in a volume of 1 ml 0.9% saline containing 0.1% human serum albumin subcutaneously in the neck. In 8 experiments 1 ml placebo (0.9% saline with 0.1% human serum albumin) was administered subcutaneously through another cannula in the neck at the same time as the administration of pentagastrin. In 2 experiments 9 μg of glucagon1-21 in 1 ml of the above solution was administered simultaneously with the administration of pentagastrin. Gastric acid secretion was collected over periods of 15 minutes and titrated with 0.01N NaOH. The increase in acid secretion after the administration of pentagastrin was calculated as μEq acid excreted over 11/2 hrs. after the administration subtracting the basal acid secretion before administration of pentagastrin. After administration of 4.5 μg pentagastrin plus placebo the increase in gastric acid secretion was 729± 89 μEq acid (X±S.E.M., N=8). […]

gall flow in rats = test: Gall flow in rats in vivo; design: species or system rat
[6] = i.v. bolus, 100 to 200 μg glucagon or 77 to 154 μg glucagon1-21, anesthetized rabbits 2.5 to 3.0 kg

## CC(C)C[C@H](NC(=O)[C@H](Cc1ccc(O)cc1)NC(=O)[C@H](CCCCN)NC(=O)[C@H](CO)NC(=O)[C@H](Cc1ccc(O)cc1)NC(=O)[C@H](CC(=O)O)NC(=O)[C@H](CO)NC(=O)[C@@H](NC(=O)[C@H](Cc1ccccc1)NC(=O)[C@@H](NC(=O)CNC(=O)[C@H](CCC(N)=O)NC(=O)[C@H](CO)NC(=O)[C@@H](N)Cc1c[nH]cn1)[C@@H](C)O)[C@@H](C)O)C(=O)N[C@@H](CC(=O)O)C(=O)N[C@@H](CO)C(=O)N[C@@H](CCCNC(=N)N)C(=O)N[C@@H](CCCNC(=N)N)C(=O)N[C@@H](C)C(=O)N[C@@H](CCC(N)=O)C(=O)N[C@@H](CC(=O)O)C(=O)O [glucagon1-21, glucagon-(1-21)-heneicosapeptide]
NMRI mice
  deaths: No deaths occurred

## CC(C)C[C@H](NC(=O)[C@H](Cc1c[nH]c2ccccc12)NC(=O)[C@H](CCC(N)=O)NC(=O)[C@@H](NC(=O)[C@H](Cc1ccccc1)NC(=O)[C@H](CC(=O)O)NC(=O)[C@H](CCC(N)=O)NC(=O)[C@H](C)NC(=O)[C@H](CCCNC(=N)N)NC(=O)[C@H](CCCNC(=N)N)NC(=O)[C@H](CO)NC(=O)[C@H](CC(=O)O)NC(=O)[C@H](CC(C)C)NC(=O)[C@H](Cc1ccc(O)cc1)NC(=O)[C@H](CCCCN)NC(=O)[C@H](CO)NC(=O)[C@H](Cc1ccc(O)cc1)NC(=O)[C@H](CC(=O)O)NC(=O)[C@H](CO)NC(=O)[C@@H](NC(=O)[C@H](Cc1ccccc1)NC(=O)[C@@H](NC(=O)CNC(=O)[C@H](CCC(N)=O)NC(=O)[C@H](CO)NC(=O)[C@@H](N)Cc1c[nH]cn1)[C@@H](C)O)[C@@H](C)O)C(C)C)C(=O)O [glucagon1-26, glucagon-(1-26)-hexacosapeptide]
Adenylate cyclase
  effect on the activation of the adenylate cyclase (metabolic effect) compared with glucagon: negligible
Rat free fat cells
  lipolytic effect (metabolic effect) compared with glucagon: negligible
[1]; electrically stimulated guinea pig ileum in vitro
  inhibitory effect on the amplitude of the contractions, potency compared with glucagon: almost the same potency as glucagon
rats
  metabolic effects after administration in vivo: No metabolic effects

## glucagon
[2]; 200 μg i.v.
  spasmolytic effect: no detectable effect
[2]; 400 μg
  spasmolytic effect: distinct effect
[2]; [6]
  duration of inhibition of intestinal motility: about ten
  onset of inhibition of intestinal motility after administration: one
[3]; 10^-6 M, strip contracted with 0.1 μg/ml cholecystochinin octapeptide
  relaxation of gall bladder strip: 39%
[3]; strip contracted with 0.1 μg/ml cholecystochinin octapeptide
  ED50 (relaxation of gall bladder strip): 2700 nM
[3]; submaximally contracted rabbit gall bladder preparation in vitro
  relaxing effect on gall bladder preparation, relative potency: almost equipotent
Bile flow in rabbits; rabbits with catheters in the bile duct
  gall flow immediately after the administration: decrease in gall flow
Bile flow in rabbits; rabbits with catheters in the bile duct, after the initial decrease
  subsequent bile flow: increase in bile flow to quantities higher than before the administration
Bile flow in rabbits; sampling period 45-60 minutes, one rex rabbit 2.0 kg
  Amount of bile: 0.20 mL
Bile flow in rabbits; sampling period 60-75 minutes
  Amount of bile: 0.25 mL
Bile flow in rabbits; sampling period 75-90 minutes
  Amount of bile: 3.30 mL
Bile flow in rabbits; sampling period 90-105 minutes
  Amount of bile: 2.80 mL
Bile flow in rabbits; sampling period 105-120 minutes
  Amount of bile: 2.00 mL
[4]
  insulin release: releases insulin
[1]; 10^-5 M, X±sd, N=3
  inhibition of contraction amplitude: 83±4%
[1]; 10^-6 M
  inhibition of contraction amplitude: 50±3%
[1]; 10^-7 M
  inhibition of contraction amplitude: 27±3%
[5]
  effect on pentagastrin stimulated gastric acid secretion: inhibit pentagastrin stimulated gastric acid secretion
Gall flow in rats
  effect on gall flow: increase in gall flow
